Here are results for eleven molecules from patent US20040127511A1 (Pharmacia Corporation, priority 2002, published 2004).

Counter-ions that a name gives are not always drawn. Like-named read-outs stand apart in the source and are kept apart here. Bounds are passed on as bounds.

Experiment [1] deals with TNFα release, U937 cells. Description: U937 Cell TNFα Release Assay (LPS-stimulated, TNFα ELISA). The conditions noted are these: Homo sapiens, read-out: TNFα release assay IC50. Type of experiment: cell-based. As to the method: U937 Cell TNFα Release Assay
The human monocyte-like cell line, U937 (ATCC #CRL-1593.2), is cultured in RPMI1640 media with 10% heat-inactivated fetal calf serum (GIBCO), glutamine and pen/strep at 37° C. and 5% CO2. Differentiation of U937 to monocytic/macrophage-like cells is induced by the addition of phorbol12-myristate 13-acetate (Sigma) at final concentration of 20 ng/ml to a culture of U937 cells at ˜0.5 million cells/ml and incubated for 24 hrs. The cells are centrifuged, washed with PBS and resuspended in fresh media without PMA and incubated for 24 hrs. Cells adherent to the culture flask are harvested by scraping, centrifugation, and resuspended in fresh media to 2 million cells/ml, and 0.2 ml is aliquoted to each of 96 wells in flat-bottom plate. Cells are then incubated for an additional 24 hrs to allow for recovery. […]
ELISA plates (NUNC-Immuno™ Plate Maxisorb™ Surface) were coated with purified mouse monoclonal IgG1 anti-human TNFα antibody (R&D Systems #MAB610; 1.25 ug/ml in sodium bicarbonate pH 8.0, 0.1 ml/well) and incubated at 4° C. […] Enzymatic conversion of ABTS to colored product was measured after 5-30 minutes using a SpectroMax 340 spectrophotometer (Molecular Devices) at 405 nm. TNF levels were quantitated from a recombinant human TNFα (R&D Systems #210-TA-010) standard curve using a quadratic parameter fit generated by SoftMaxPRO software. […]

Experiment [2] relates to LPS-induced TNFα production. Description: Rat LPS assay: Lipopolysaccharide (LPS)-Induced TNFα Production. Type of experiment: in vivo. Conditions: 20 mpk (IP); inhibition of serum TNFα vs vehicle.
Experiment [3] deals with MAPKAPK2 (Homo sapiens, UniProt P49137). Put plainly: biochemical. Type of experiment: biochemical.
Chain of MAPKAPK2 (P49137 whole entry, species assumed): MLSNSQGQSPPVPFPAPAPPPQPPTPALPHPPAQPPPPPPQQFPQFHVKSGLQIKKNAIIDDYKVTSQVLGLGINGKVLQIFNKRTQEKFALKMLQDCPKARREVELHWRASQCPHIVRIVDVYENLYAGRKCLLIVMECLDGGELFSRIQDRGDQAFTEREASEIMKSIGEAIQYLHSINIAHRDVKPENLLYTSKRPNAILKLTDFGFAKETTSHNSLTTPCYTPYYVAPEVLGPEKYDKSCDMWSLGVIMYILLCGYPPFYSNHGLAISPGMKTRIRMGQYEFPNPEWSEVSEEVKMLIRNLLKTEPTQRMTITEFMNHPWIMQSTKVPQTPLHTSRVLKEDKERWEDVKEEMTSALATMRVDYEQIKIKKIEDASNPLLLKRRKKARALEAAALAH
Experimental: The phosphorylation of HSP-peptide ([sequence]) by MAPKAPK2 was measured using an anion exchange resin capture assay method. […] The reaction was terminated and [γ^33P]ATP was removed from solution by the addition of 150 μl of AG 1×8 ion exchange resin in 900 mM sodium formate pH 3.0. A 50 μl aliquot of head volume was removed from the quenched reaction mixture and added to a 96-well plate, 150 μl of Microscint-40 (Packard) was added and the amount of phosphorylated-peptide was determined.
Compounds are evaluated as potential inhibitors of the MK2 kinase by measuring their effects on MK2 phosphorylation of the peptide substrate. Compounds may be screened initially at two concentrations prior to determination of IC50 values. Screening results are expressed as percent inhibition at the concentrations of compound tested. For IC50 value determinations, compounds are tested at six concentrations in ten-fold serial dilutions with each concentration tested in triplicate. Results are expressed as IC50 values in micromolar. The assay is performed at a final concentration of 2% DMSO.
[4] abbreviates: HSP-peptide substrate, 0.03 mM ATP, 2% DMSO, read-out: MK-2 Avg. IC50.

As to `N#Cc1c(N)nc2c(c1N)Cc1ccc(OCCN)cc1O2` [No. 19, 2,4-diamino-8-(2-aminoethoxy)-5H-chromeno[2,3-b]pyridine-3-carbonitrile hydrochloride], the IC50 in experiment [1] (U-937, 4 h) was 6.9 µM. Besides, in experiment [2], the “Rat LPS Assay inhibition” value is given as 88%.

Regarding `COc1cccc2c1Cc1c(nc(N)c(C#N)c1N)O2` [No. 70, trifluoroacetate], the IC50 in experiment [3] (setting [4]) was no less than 200 µM.

Molecule `N#Cc1c(N)nc2c(c1N)Cc1ccc(OCCN3CCOCC3)cc1O2` [No. 28, trifluoroacetate] yielded an IC50 in experiment [3] of 0.91 µM.

On to `N#Cc1c(N)nc2c(c1N)Cc1ccc(OCCN3CCCC3)cc1O2.O=C(O)C(F)(F)F` [No. 25, 2,4-diamino-8-(2-pyrrolidin-1-ylethoxy)-5H-chromeno[2,3-b]pyridine-3-carbonitrile], for which the IC50 in experiment [1] (U-937, differentiated U937 cells, LPS 100 ng/ml, 4 hrs) came to 2.9 µM. Besides, the “Rat LPS Assay inhibition” value in experiment [2] was 60%.

On to `N#Cc1c(N)nc2c(c1N)Cc1cc(OC(F)(F)F)ccc1O2` [No. 70, trifluoroacetate], for which the IC50 in experiment [3] (setting [4]) was no less than 200 µM.

Consider `CCNc1nc2c(c(NCC)c1C#N)Cc1cc(OC)c(OC)cc1O2` [No. 103, trifluoroacetate], for which the IC50 in experiment [3] (setting [4]) is no less than 200 µM.

On to `COc1cc2c(cc1OC)Oc1nc(N)c(C#N)c(NCCN3C(=O)c4ccccc4C3=O)c1C2` [No. 94], for which the IC50 in experiment [3] (setting [4]) was no less than 200 µM.

`Cc1ccc2c(c1)Oc1nc(N)c(C#N)c(N)c1C2` [No. 42, trifluoroacetate]: the 50% inhibitory concentration (IC50) in experiment [3] (setting [4]) is no less than 200 µM.

As to `N#Cc1c(N)nc2c(c1N)Cc1cccc(OCc3ccncc3)c1O2` [No. 83], the IC50 in experiment [3] (setting [4]) is no less than 200 µM.

In experiment [3], `N#Cc1c(N)nc2c(c1N)Cc1cccc(C(=O)O)c1O2` [No. 81, trifluoroacetate] showed an IC50 of no less than 200 µM.

In the case of `COc1cc(OC)c2c(c1)Oc1nc(N)c(C#N)c(N)c1C2` [No. 62, trifluoroacetate], the IC50 in experiment [3] (setting [4]) is no less than 200 µM.
